Results reported in PubChem BioAssay AID504864 (NMMLSC, 2011).
Activity calls are given as the source filed them.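 Rule for the calls: active = normalized viability below 40% relative to DMSO and staurosporine controls, called cytotoxic; inactive = the rest.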

Each molecule was assayed on ConA-stimulated mouse T cells viability, FDA flow cytometry, 24 h (assay: viability of concanavalin A-activated mouse T cells – cell-based, concanavalin A stimulation, cytotoxicity control for T cell immune modulator project (AID 504864)). Conditions: at 20 µM; hits give low values.

Q: Which viability does the source give for `Cc1cccc(NC(=O)C2CCN(S(=O)(=O)c3c(C)[nH]c(=O)[nH]c3=O)CC2)c1` here?
A: 96% (inactive)

Q: Which viability does the source give for `COc1ccc(S(=O)(=O)N2CCCC2C(=O)Nc2ccc(C(C)=O)cc2)cc1` (stereo not drawn) here?
A: 94.9% (inactive)

Q: Which viability does the source give for `CCCc1nnc(NC(=O)c2ccc(S(=O)(=O)N(C)c3ccccc3OC)cc2)s1` here?
A: 89.7% (inactive)

Q: `CCOC(=O)c1ccc(NC(=O)CN2C(=O)NC3(CCCCCCC3)C2=O)cc1` was tested. Which viability did it give?
A: 91.1% (inactive)

Q: `Cc1ccccc1C(=O)N1CCC(C(=O)Nc2ccc(C)c(S(=O)(=O)N3CCCCC3)c2)CC1` was tested. Which viability did it give?
A: 82.2% (inactive)

Q: With `Cc1ccc(NC(=O)COC(=O)CCc2c[nH]c3ccccc23)c(C)c1` as the molecule, how does the viability read?
A: 97.2% (inactive)

Q: With `CN1CCN(S(=O)(=O)c2cccc(C(=O)Nc3cc(C(F)(F)F)ccc3N3CCCCC3)c2)CC1` as the molecule, how does the viability read?
A: 56.9% (inactive)

Q: `Cc1cc(C)n(C(=O)c2sc3cc(F)ccc3c2Cl)n1` was tested. Which viability did it give?
A: 87.8% (inactive)

Q: For `O=C(Cn1cc(C(F)(F)F)cc(Cl)c1=O)NCCc1ccc(Cl)cc1Cl`, which viability is on record?
A: 102% (inactive)

Q: How did the viability turn out when `Cn1c(CNC(=O)CNC(=O)c2ccc(F)cc2)cc(=O)n(C)c1=O` was run?
A: 96.3% (inactive)

Q: How did the viability turn out when `COc1ccccc1NS(=O)(=O)c1cc(NC(=O)CNC(=O)c2cc(C)cc(C)c2)ccc1C` was run?
A: 111% (inactive)

Q: Which viability does the source give for `CN(CC(=O)Nc1cc(S(=O)(=O)N2CCCC2)ccc1Cl)Cc1ccc2c(c1)OCO2` here?
A: 78.3% (inactive)

Q: With `CCCCn1nc(C(=O)N2CCN(S(=O)(=O)c3ccccc3)CC2)c2ccccc2c1=O` as the molecule, how does the viability read?
A: 98.2% (inactive)

Q: How did the viability turn out when `CCN(CC)C(=O)N1CCN(S(=O)(=O)c2ccc(C)cc2)CC1` was run?
A: 105% (inactive)

Q: `CCC1(C)NC(=O)N(CC(=O)N2N=C(c3ccccc3)CC2c2ccc(OC)cc2)C1=O` (stereo not drawn) was tested. Which viability did it give?
A: 93.6% (inactive)

Q: Which viability does the source give for `O=C(NNS(=O)(=O)c1ccc2ccccc2c1)c1cccs1` here?
A: 100% (inactive)

Q: How did the viability turn out when `Cc1ccc(O)c(CCc2ccccc2)n1` was run?
A: 96.7% (inactive)

Q: For `CCOC(=O)c1ccc(S(=O)(=O)N2CCN(C3CCCC3)CC2)cc1`, which viability is on record?
A: 90.7% (inactive)

Q: For `Cc1ccc(S(=O)(=O)N2CCN(C(=O)CNC(=O)c3ccc(Cl)cc3)CC2)cc1`, which viability is on record?
A: 33.2%

Q: `Cc1ncc([N+](=O)[O-])n1Cc1cccc(F)c1` was tested. Which viability did it give?
A: 116% (inactive)

Q: How did the viability turn out when `Cc1ccc(S(=O)(=O)N2CCN(S(=O)(=O)N(C)C)CC2)c(C)c1` was run?
A: 84.8% (inactive)

Q: For `Cc1cc(=O)oc2c3c(cc(OCC(=O)NCc4ccncc4)c12)OC(C)(C)CC3`, which viability is on record?
A: 106% (inactive)

Q: For `O=C(CC1=NCCNC(c2ccccc2)C1)c1ccccc1O` (stereo not drawn), which viability is on record?
A: 75% (inactive)

Q: How did the viability turn out when `COCCCN1CCc2[nH]c(=S)[nH]c(=O)c2C1` was run?
A: 95.4% (inactive)

Q: Which viability does the source give for `Cc1ccc(C(=O)NCCCN2CCOCC2)c(C)c1` here?
A: 96.3% (inactive)

Q: `CCC(C(=O)Nc1ccccc1)c1ccccc1` (stereo not drawn) was tested. Which viability did it give?
A: 104% (inactive)

Q: With `CC(Sc1nc2ccccc2[nH]1)C(=O)NC1CCCCC1C` (stereo not drawn) as the molecule, how does the viability read?
A: 101% (inactive)

Q: Which viability does the source give for `COc1ccc(/C=C2\SC(=S)N(CCC(=O)N3CCOCC3)C2=O)cc1` here?
A: 78.4% (inactive)

Q: `CCOc1ccc(-c2nc(N)ncc2-c2ccccc2)c(O)c1` was tested. Which viability did it give?
A: 83.1% (inactive)

Q: For `CCOCC(=O)Nc1ccc(S(=O)(=O)N2CCC(c3nc4ccccc4[nH]3)CC2)cc1`, which viability is on record?
A: 94% (inactive)

Q: With `O=C1CC(c2nc3ccccc3[nH]2)CN1Cc1ccccc1` (stereo not drawn) as the molecule, how does the viability read?
A: 110% (inactive)

Q: `CCOC(=O)C1CCCN(S(=O)(=O)c2ccc(F)c(C(=O)Nc3ccc(F)c(F)c3)c2)C1` (stereo not drawn) was tested. Which viability did it give?
A: 74.5% (inactive)

Q: For `CCN(CC)CCNC(=O)CCCNC(=O)Cn1cnc2sc(C)c(C)c2c1=O`, which viability is on record?
A: 98.7% (inactive)

Q: `CCOC(=O)c1c(N2C(=O)CC(Sc3ccccc3C(=O)O)C2=O)sc2c1CCCC2` (stereo not drawn) was tested. Which viability did it give?
A: 94.2% (inactive)

Q: Which viability does the source give for `COc1ccc(NC(=O)CSCC(=O)Nc2cccc(S(=O)(=O)N3CCCCCC3)c2)cc1` here?
A: 86.6% (inactive)

Q: How did the viability turn out when `COc1ccc(N2CC(C(=O)NC(C)C(=O)NCc3ccccc3OC)CC2=O)cc1` (stereo not drawn) was run?
A: 88.2% (inactive)

Q: Which viability does the source give for `CC1CCCCC1NC(=O)COC(=O)c1ccc2ncsc2c1` (stereo not drawn) here?
A: 90.9% (inactive)

Q: How did the viability turn out when `CCN(CC)S(=O)(=O)c1ccc(Cl)c(NC(=O)COC(=O)C2CCCCC2)c1` was run?
A: 106% (inactive)

Q: For `O=C(NCc1cccnc1)C(=O)NCC(c1ccco1)N1CCN(c2ccccc2)CC1` (stereo not drawn), which viability is on record?
A: 101% (inactive)

Q: For `O=C(c1ccc(N2C(=O)C3CC=C(Cl)CC3C2=O)cc1)N1CCCCC1` (stereo not drawn), which viability is on record?
A: 6.85%

Q: Which viability does the source give for `O=C(NCCN1CCN(c2ccccc2)CC1)c1cccc(Br)c1` here?
A: 86.2% (inactive)

Q: Which viability does the source give for `O=C(NCCC1=CCCCC1)C(=O)NCC(c1ccco1)N1CCN(c2ccccc2F)CC1` (stereo not drawn) here?
A: 73.6% (inactive)

Q: `Cc1cc(Cl)c(OCCCSc2nc(C)cc(=O)[nH]2)c(Br)c1` was tested. Which viability did it give?
A: 103% (inactive)

Q: With `COc1ccc(S(=O)(=O)N2CCCCC2)cc1NC(=O)c1cnc(C)cn1` as the molecule, how does the viability read?
A: 102% (inactive)

Q: Which viability does the source give for `Cc1ccc(N2CC(C(=O)NC3=NCCS3)CC2=O)cc1` (stereo not drawn) here?
A: 93.6% (inactive)

Q: `CCCCOc1ccc(C(=O)NCC(=O)N2CCN(C(=O)c3ccco3)CC2)cc1` was tested. Which viability did it give?
A: 85.5% (inactive)

Q: How did the viability turn out when `CN1CCN(S(=O)(=O)c2ccc(C(=O)Nc3ccccc3)cc2)CC1` was run?
A: 93.5% (inactive)

Q: How did the viability turn out when `CCOC(=O)N1CCN(C(=O)c2ccc(CS(=O)Cc3ccc(C)cc3)o2)CC1` (stereo not drawn) was run?
A: 98.2% (inactive)

Q: How did the viability turn out when `O=C(COC(=O)C12CC3CC(CC(Br)(C3)C1)C2)Nc1cccc(S(=O)(=O)N2CCOCC2)c1` was run?
A: 96.9% (inactive)

Q: For `O=C(NCC1CCCCC1)c1ccc(Cl)c(S(=O)(=O)N2CCOCC2)c1`, which viability is on record?
A: 78.3% (inactive)

Q: `CCCNC(=O)c1nc2ncc(Br)cn2n1` was tested. Which viability did it give?
A: 101% (inactive)

Q: For `O=C(O)C1CCC(Cn2c(SCc3cc(=O)n4cc(Cl)ccc4n3)nc3ccsc3c2=O)CC1` (stereo not drawn), which viability is on record?
A: 71.6% (inactive)

Q: For `c1ccc(COc2ccc(OCCN3CCCCC3)cc2)cc1`, which viability is on record?
A: 112% (inactive)

Q: How did the viability turn out when `CN(C)S(=O)(=O)c1cccc(-n2sc3ccccc3c2=O)c1` was run?
A: 12.1%

Q: How did the viability turn out when `COc1ccccc1CNC(=O)COc1ccc(C)cc1` was run?
A: 98.7% (inactive)

Q: How did the viability turn out when `CC(C)(C)NC(=O)COc1ccc(CNCc2cccnc2)cc1` was run?
A: 91.1% (inactive)

Q: How did the viability turn out when `COc1ccc([N+](=O)[O-])cc1NC(=O)c1ccc(N(Cc2ccccc2C)S(C)(=O)=O)cc1` was run?
A: 90.9% (inactive)

Q: How did the viability turn out when `Cc1sc2ncnc(NCC(C)(C)N3CCOCC3)c2c1C` was run?
A: 101% (inactive)

Q: How did the viability turn out when `COc1ccc(NC(=O)CC2C(=O)N(Cc3ccccc3)C(=S)N2CCN2CCOCC2)cc1` (stereo not drawn) was run?
A: 100% (inactive)

Q: `O=C(OCCOc1cccc(Cl)c1)c1ccc(F)c(S(=O)(=O)N2CCOCC2)c1` was tested. Which viability did it give?
A: 85% (inactive)

Q: `CC(=O)c1ccc(-c2csc(N3CCC(C(N)=O)CC3)n2)cc1` was tested. Which viability did it give?
A: 91.6% (inactive)

Q: `CCOc1ccc(CCNC(=O)CCS(=O)(=O)c2ccc(C)cc2)cc1OCC` was tested. Which viability did it give?
A: 85.5% (inactive)

Q: How did the viability turn out when `Cc1ccc(Cn2c([N+](=O)[O-])cnc2C)cc1` was run?
A: 110% (inactive)

Q: For `COC(=O)c1ccccc1NC(=O)C1CCN(C(=O)c2cc(OC)cc(OC)c2)CC1`, which viability is on record?
A: 103% (inactive)

Q: For `NC(=O)C1CCN(c2nc(-c3cc4ccccc4o3)cs2)CC1`, which viability is on record?
A: 88.8% (inactive)

Q: With `COc1ccc(CNC(=O)c2cccnc2SC)cc1OC` as the molecule, how does the viability read?
A: 75.5% (inactive)

Q: Which viability does the source give for `COc1cccc(NC(=O)Nc2ccc3nc(C)c(C)nc3c2)c1` here?
A: 100% (inactive)

Q: How did the viability turn out when `CCOC(=O)c1c(C=O)c2ccccc2n1CC` was run?
A: 91.6% (inactive)

Q: `COc1ccc(C2=Nc3cc(C)ccc3OC2)cc1` was tested. Which viability did it give?
A: 94.5% (inactive)

Q: `Cc1ccccc1C(=O)NCC(=O)N1CCN(C/C=C/c2ccccc2)CC1` was tested. Which viability did it give?
A: 100% (inactive)

Q: For `O=C(CCC(=O)N1CCOCC1)NCc1cccc(C(F)(F)F)c1`, which viability is on record?
A: 98% (inactive)

Q: For `COc1ccc(Nc2ccccc2N)cc1`, which viability is on record?
A: 21.9%

Q: `Cc1ccc(OCCOC(=O)c2cc(S(=O)(=O)N3CCCCC3)ccc2N2CCOCC2)cc1` was tested. Which viability did it give?
A: 48.6% (inactive)

Q: For `COCc1c(C(=O)Nc2cccc(S(=O)(=O)N3CCCCC3)c2)oc2ccccc12`, which viability is on record?
A: 58.7% (inactive)

Q: How did the viability turn out when `COc1ccc(C(O)c2coc3ccc(O)c(CN(C)C)c23)cc1` (stereo not drawn) was run?
A: 88% (inactive)

Q: Which viability does the source give for `CN(C)S(=O)(=O)c1ccc(C(=O)NCCc2ccco2)cc1` here?
A: 91.8% (inactive)

Q: With `CC(=O)Nc1ccc(S(=O)(=O)NC2CCSc3ccccc32)cc1` (stereo not drawn) as the molecule, how does the viability read?
A: 98.5% (inactive)

Q: Which viability does the source give for `O=C(CS(=O)(=O)Cc1ccccc1)N1CCc2ccccc21` here?
A: 106% (inactive)
